Laboratory results as given in publication PMC3596305, “Escherichia coli NemA Is an Efficient Chromate Reductase That Can Be Biologically Immobilized to Provide a Cell Free System for Remediation of Hexavalent Chromium” (PLoS ONE, 2013).

System: T1, KefF_Pa
T1 construct: gene kefF
Assay: diphenylcarbazide Cr(VI) assay, Lineweaver-Burk
Assay type: biochemical
Conditions: 1 mM NADH, 50 mM Tris-Cl pH 7.0, 22°C; read-out: KM (μM) ^b
Excerpt: diphenylcarbazide Cr(VI) assay, Lineweaver-Burk on KefF_Pa

[O]=[Cr](=[O])([OH])[OH] [Cr(VI)] showed a Km of 140 µM.
